Reference: ChEMBL document CHEMBL1136575, “Pyridazinones as selective cyclooxygenase-2 inhibitors” (Bioorg Med Chem Lett, 2003)
pIC50: −log10 of the molar value.

Tests used:
[1] = target: T1, Prostaglandin G/H synthase 2 (Homo sapiens, UniProt P35354); assay: In vitro inhibitory activity against prostaglandin G/H synthase 2 stably transfected in Human whole blood (HWB) cell; assay type: tissue-based
T1 sequence (P35354 whole entry): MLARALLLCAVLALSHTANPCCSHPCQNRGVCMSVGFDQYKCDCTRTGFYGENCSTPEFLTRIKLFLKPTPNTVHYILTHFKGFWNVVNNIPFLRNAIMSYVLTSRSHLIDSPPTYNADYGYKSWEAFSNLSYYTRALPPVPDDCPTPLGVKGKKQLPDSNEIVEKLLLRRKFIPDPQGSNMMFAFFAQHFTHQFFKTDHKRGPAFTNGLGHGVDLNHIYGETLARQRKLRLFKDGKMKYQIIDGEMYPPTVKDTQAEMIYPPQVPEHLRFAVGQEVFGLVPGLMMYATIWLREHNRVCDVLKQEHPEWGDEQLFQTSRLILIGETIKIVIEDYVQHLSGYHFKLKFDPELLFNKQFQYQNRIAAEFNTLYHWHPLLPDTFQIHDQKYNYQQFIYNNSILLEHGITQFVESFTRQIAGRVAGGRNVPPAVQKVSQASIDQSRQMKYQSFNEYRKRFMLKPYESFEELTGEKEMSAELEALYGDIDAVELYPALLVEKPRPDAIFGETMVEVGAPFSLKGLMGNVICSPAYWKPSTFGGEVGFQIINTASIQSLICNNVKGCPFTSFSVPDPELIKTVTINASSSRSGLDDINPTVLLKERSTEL

[2] = target: Prostaglandin G/H synthase 1 (Homo sapiens, UniProt P23219); assay: In vitro inhibitory activity against sensitive U-937 microsomal prostaglandin G/H synthase 1
[3] = target: T1, Prostaglandin G/H synthase 2; assay: In vitro inhibitory activity against prostaglandin G/H synthase 2 stably transfected in Chinese hamster ovary (CHO) cells; assay type: cell-based
Rattus norvegicus [4] = assay: Effective dose of the Compound was determined in vivo by using rat paw edema assay; assay type: functional
[5] = Cmax value was determined after peroral administration of 20 mg/kg in rat; assay type: ADME, organism-based; parameters: dose 20 mg/kg, route oral; settings: in vivo, po
Rattus norvegicus [6] = assay: Percent inhibition was determined in vivo by using rat paw edema assay at 10 mg/kg; assay type: functional
Rattus norvegicus [7] = assay: Effective dose of the Compound was determined in vivo by using rat pyresis assay; assay type: functional

Chain of Prostaglandin G/H synthase 1 (P23219 whole entry): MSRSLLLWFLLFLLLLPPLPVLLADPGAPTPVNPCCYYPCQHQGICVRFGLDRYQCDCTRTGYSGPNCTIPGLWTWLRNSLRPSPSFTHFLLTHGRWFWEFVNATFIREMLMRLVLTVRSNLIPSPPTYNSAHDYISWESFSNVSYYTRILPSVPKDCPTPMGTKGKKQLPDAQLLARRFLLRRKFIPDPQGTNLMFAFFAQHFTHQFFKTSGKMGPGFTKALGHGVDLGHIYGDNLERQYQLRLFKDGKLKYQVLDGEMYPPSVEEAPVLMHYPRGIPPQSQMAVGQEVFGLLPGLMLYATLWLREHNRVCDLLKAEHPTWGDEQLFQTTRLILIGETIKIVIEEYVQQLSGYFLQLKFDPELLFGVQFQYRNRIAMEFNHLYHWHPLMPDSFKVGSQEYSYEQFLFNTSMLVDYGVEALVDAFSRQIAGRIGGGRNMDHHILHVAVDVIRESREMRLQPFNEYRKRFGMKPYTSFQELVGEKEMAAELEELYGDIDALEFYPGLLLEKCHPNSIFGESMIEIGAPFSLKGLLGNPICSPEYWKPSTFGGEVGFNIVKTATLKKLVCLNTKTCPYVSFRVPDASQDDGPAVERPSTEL

| pIC50 [1] | pIC50 [2] | pIC50 [3] | Cmax [5] | Compound | ED50 (Rattus norvegicus [4]) | inhibition in vivo at 10 mg/kg (Rattus norvegicus [6]) | ED50 (Rattus norvegicus [7]) |
| --- | --- | --- | --- | --- | --- | --- | --- |
| 5.15 | 5.00 | 5.89 | – | CS(=O)(=O)c1ccc(-c2cnn(Cc3cccnc3)c(=O)c2-c2ccccc2)cc1 | – | – | – |
| < 4.48 | < 5.00 | < 5.30 | – | CS(=O)(=O)c1ccc(-c2cnnc(O)c2-c2ccccc2)cc1 | – | – | – |
| < 4.48 | < 5.00 | < 5.30 | – | CC(C)(C)n1ncc(-c2ccc(S(C)(=O)=O)cc2)c(-c2ccccc2)c1=O | – | – | – |
| 5.77 | 5.00 | 7.22 | 4.8 µM | C[C@@H]1C[C@H]1Cn1ncc(-c2ccc(S(C)(=O)=O)cc2)c(-c2ccc(F)cc2)c1=O | – | 40% | – |
| – | < 5.00 | – | 8.5 µM | CS(=O)(=O)c1ccc(-c2cnn(CC3CC3)c(=O)c2-c2ccc(F)cc2)cc1 | 10 mg/kg | – | – |
| – | 5.00 | – | – | CS(=O)(=O)c1ccc(-c2cnn(C3CC3)c(=O)c2-c2ccc(F)cc2)cc1 | – | – | – |
| – | < 5.00 | – | – | CS(=O)(=O)c1ccc(-c2cnn(-c3ccccc3)c(=O)c2-c2ccccc2)cc1 | – | – | – |
| 6.15 | 5.52 | 7.52 | – | CC1(C)CC1Cn1ncc(-c2ccc(S(C)(=O)=O)cc2)c(-c2ccc(F)cc2)c1=O (racemic) | – | – | – |
| 6.15 | 5.00 | 6.70 | 13 µM | CC(C1CC1)n1ncc(-c2ccc(S(C)(=O)=O)cc2)c(-c2ccc(F)cc2)c1=O (racemic) | 1.8 mg/kg | – | > 10 mg/kg |
| 5.62 | 5.00 | 7.30 | – | C[C@H]1C[C@H]1Cn1ncc(-c2ccc(S(C)(=O)=O)cc2)c(-c2ccc(F)cc2)c1=O (racemic) | – | – | – |

More lines, now with the values behind:

| Compound | pIC50 [1] | pIC50 [2] | pIC50 [3] | Cmax [5] | ED50 (Rattus norvegicus [4]) | inhibition in vivo at 10 mg/kg (Rattus norvegicus [6]) | ED50 (Rattus norvegicus [7]) |
| --- | --- | --- | --- | --- | --- | --- | --- |
| CC1(Cn2ncc(-c3ccc(S(C)(=O)=O)cc3)c(-c3ccc(F)cc3)c2=O)CC1 | 6.15 | 5.52 | 6.70 | – | – | – | – |
| Cn1ncc(-c2ccc(S(C)(=O)=O)cc2)c(-c2ccccc2)c1=O | – | – | 6.52 | – | – | – | – |
| CS(=O)(=O)c1ccc(-c2cnn(Cc3ccccc3)c(=O)c2Sc2ccccc2)cc1 | 5.23 | 5.00 | 6.43 | – | – | – | – |
| Cc1ccc(-c2c(-c3ccc(S(C)(=O)=O)cc3)cnn(Cc3ccccc3)c2=O)cn1 | – | < 5.00 | – | 4.2 µM | > 10 mg/kg | – | – |
| CS(=O)(=O)c1ccc(-c2cnn(CCC3CC3)c(=O)c2-c2ccc(F)cc2)cc1 | 5.54 | < 5.00 | 6.70 | – | – | – | – |
| CS(=O)(=O)c1ccc(-c2cnn(Cc3ccccc3)c(=O)c2OCC2CC2)cc1 | 6.44 | 5.00 | 8.52 | 0.8 µM | > 10 mg/kg | – | – |
| CS(=O)(=O)c1ccc(-c2cnn(Cc3ccccc3)c(=O)c2-c2ccccc2)cc1 | – | 5.00 | – | 1 µM | – | – | – |
| Cc1ccc(-c2c(-c3ccc(S(C)(=O)=O)cc3)cnn(Cc3ccccc3)c2=O)cc1 | – | < 5.00 | 7.70 | 2.7 µM | 2.2 mg/kg | – | > 10 mg/kg |
| CS(=O)(=O)c1ccc(-c2cnn(Cc3nccs3)c(=O)c2-c2ccc(F)cc2)cc1 | 5.23 | 5.00 | 6.22 | – | – | – | – |
| CS(=O)(=O)c1ccc(-c2cnn(Cc3ccccc3)c(=O)c2Oc2ccc(F)cc2)cc1 | – | 6.00 | – | – | > 10 mg/kg | – | – |
| CS(=O)(=O)c1ccc(-c2cnn(CC3CCCCC3)c(=O)c2-c2ccc(F)cc2)cc1 | – | 6.00 | – | – | – | – | – |
| CC(C)=CCn1ncc(-c2ccc(S(C)(=O)=O)cc2)c(-c2ccc(F)cc2)c1=O | – | 5.52 | – | – | – | – | – |
| C[C@H]1C[C@@H]1Cn1ncc(-c2ccc(S(C)(=O)=O)cc2)c(-c2ccc(F)cc2)c1=O | 6.52 | 5.52 | 7.22 | 16 µM | 0.7 mg/kg | – | 1.1 mg/kg |
| CS(=O)(=O)c1ccc(-c2cnn(Cc3ccccc3)c(=O)c2Oc2ccc(Cl)cn2)cc1 | – | 5.00 | – | – | – | – | – |
| CS(=O)(=O)c1ccc(-c2cnn(Cc3cccs3)c(=O)c2-c2ccc(F)cc2)cc1 | – | 6.00 | – | – | – | – | – |
| CC(C)Oc1c(-c2ccc(S(C)(=O)=O)cc2)cnn(Cc2ccccc2)c1=O | – | < 5.00 | – | 2.8 µM | < 0.3 mg/kg | – | < 0.3 mg/kg |
| C[C@H]1C(Cn2ncc(-c3ccc(S(C)(=O)=O)cc3)c(-c3ccc(F)cc3)c2=O)[C@@H]1C (mixture of isomers) | 6.15 | 5.52 | 7.30 | – | – | – | – |
